Data from US20250074901A1, “NOVEL HETEROARYL COMPOUNDS” (ICAGEN, LLC, priority 2021, published 2025).

Biological target: T1, Kv7.2 (Homo sapiens, UniProt O43526)
T1 construct: expressed in transfected cells
Test: Activation of Kv7.2 (in vitro assay, concentration response curve)
Assay type: cell-based
Settings: for Emax: Kv7.2 activation max %; for EC50: activation of Kv7.2
Protocol: The term “EC50” in this application is defined as: the agonistic effect of a compound can be determined by testing the compound in an in vitro assay as described herein, whereby the effect of the compound is measured across a range of compound concentrations. The resulting data is plotted as a concentration response curve, which typically follows a sigmoidal function, whereby the concentration of the compound is plotted on the x axis and the response (agonistic effect) is plotted on the y axis. The term “EC50” is the “half maximal effective concentration” and denotes the concentration of a particular compound required to obtain 50% of the maximum response (Emax) which is observed for that compound in the given in vitro assay.

Emax	EC50	Structure (SMILES)
62%	550 nM	O=C(NCc1ccnc(OC(F)F)c1)Nc1ccc(F)c(F)c1 [Example 186, 1-[[2-(difluoromethoxy)pyridin-4-yl]methyl]-3-(3,4-difluorophenyl)urea]
73%	720 nM	O=C(NCc1ccnc(OC(F)F)c1)NCC(C(F)(F)F)C(F)(F)F [Example 252, 1-[[2-(difluoromethoxy)pyridin-4-yl]methyl]-3-[3,3,3-trifluoro-2-(trifluoromethyl)propyl]urea]
65%	3510 nM	O=C(NCc1ccnc(OC(F)F)c1)Nc1cccc(OC(F)F)c1 [Example 262, 1-[3-(difluoromethoxy)phenyl]-3-[[2-(difluoromethoxy)pyridin-4-yl]methyl]urea]
49%	300 nM	O=C(NCc1ccnc(OC(F)F)c1)N[C@H]1CC[C@H](OC(F)F)CC1 [Example 266, 1-[(1r,4r)-4-(difluoromethoxy)cyclohexyl]-3-[[2-(difluoromethoxy)pyridin-4-yl]methyl]urea]
53%	3450 nM	O=C(NCc1ccnc(OC(F)F)c1)NC[C@@]12CCC[C@@H]1CCO2 (racemic) [Example 120, 1-[[2-(difluoromethoxy)pyridin-4-yl]methyl]-3-[[rac-(3aR,6aR)-2,3,3a,4,5,6-hexahydrocyclopenta[b]furan-6a-yl]methyl]urea]
61%	5250 nM	O=C1CC2CCC(C1)C2NC(=O)NCc1ccnc(OC(F)F)c1 (racemic) [Example 139, 1-[[2-(difluoromethoxy)pyridin-4-yl]methyl]-3-[rac-(1R,5S)-3-oxo-8-bicyclo[3.2.1]octanyl]urea]
68%	450 nM	O=C(NCc1ccnc(OC(F)F)c1)NCC1(C(F)F)CCC1 [Example 191, 1-[[2-(difluoromethoxy)pyridin-4-yl]methyl]-3-[[1-(difluoromethyl)cyclobutyl]methyl]urea]
60%	2130 nM	O=C(NCc1ccnc(OC(F)F)c1)N[C@@H]1CCC(F)(F)C[C@H]1O (racemic) [Example 154, 1-[[2-(difluoromethoxy)pyridin-4-yl]methyl]-3-[rac-(1R,2R)-4,4-difluoro-2-hydroxycyclohexyl]urea]
57%	390 nM	O=C(NCc1ccnc(OC(F)F)c1)NC1CCCC1 [Example 20, 1-cyclopentyl-3-[[2-(difluoromethoxy)pyridin-4-yl]methyl]urea]
42%	340 nM	O=C(NCc1ccnc(C(F)(F)F)c1)N[C@H]1C[C@H](C(F)(F)F)C1 [Example 58, 1-[(1r,3r)-3-(trifluoromethyl)cyclobutyl]-3-[[2-(trifluoromethyl)pyridin-4-yl]methyl]urea]
49%	600 nM	O=C(NCc1ccnc(OC(F)F)c1)NCC1(C(F)(F)F)CC1 [Example 229, 1-[[2-(difluoromethoxy)pyridin-4-yl]methyl]-3-[[1-(trifluoromethyl)cyclopropyl]methyl]urea]
62%	1230 nM	O=C(NCc1ccnc(OC(F)F)c1)NC1CCC1 [Example 45, 1-cyclobutyl-3-[[2-(difluoromethoxy)pyridin-4-yl]methyl]urea]
76%	20 nM	CC(NC(=O)NCc1ccnc(OC(F)F)c1)C1CC2CCC1C2 (stereo not shown) [Example 24, 1-[1-(2-bicyclo[2.2.1]heptanyl)ethyl]-3-[[2-(difluoromethoxy)pyridin-4-yl]methyl]urea]

Further lines, the molecule ahead of its results:

Structure (SMILES)	Emax	EC50
O=C(NCc1ccnc(-n2cccn2)c1)N[C@H]1C[C@@H]2CC[C@H]1C2 [Example 15, 1-[(1S,2S,4R)-2-bicyclo[2.2.1]heptanyl]-3-[(2-pyrazol-1-ylpyridin-4-yl)methyl]urea]	78%	380 nM
O=C(NCc1ccnc(OC(F)F)c1)N[C@@H]1CC[C@H]2CCC[C@H]21 [Example 76, 1-[(1R,3aR,6aR)-1,2,3,3a,4,5,6,6a-octahydropentalen-1-yl]-3-[[2-(difluoromethoxy)pyridin-4-yl]methyl]urea]	79%	20 nM
O=C(Nc1cccc(Cl)c1F)NC(CO)c1ccnc(OCC(F)(F)F)c1 (stereo not shown) [Example 150, 1-(3-chloro-2-fluorophenyl)-3-[2-hydroxy-1-[2-(2,2,2-trifluoroethoxy)pyridin-4-yl]ethyl]urea]	73%	80 nM
CC(F)(F)c1cc(CNC(=O)N[C@H]2C[C@@H]3CC[C@H]2C3)ccn1 (racemic) [Example 33, 1-[[2-(1,1-difluoroethyl)pyridin-4-yl]methyl]-3-[rac-(1R,2R,4S)-2-bicyclo[2.2.1]heptanyl]urea]	80%	260 nM
O=C(NCc1ccnc(OCC(F)(F)F)c1)NC12CC(F)(C1)C2 [Example 168, 1-(3-fluoro-1-bicyclo[1.1.1]pentanyl)-3-[[2-(2,2,2-trifluoroethoxy)pyridin-4-yl]methyl]urea]	59%	210 nM
O=C(NCc1cc(OC(F)F)ncc1F)N[C@H]1C[C@H](C(F)(F)F)C1 [Example 277, 1-[[2-(difluoromethoxy)-5-fluoropyridin-4-yl]methyl]-3-[(1r,3r)-3-(trifluoromethyl)cyclobutyl]urea]	58%	330 nM
CC1CC(C)(C)CCC1NC(=O)NCc1ccnc(C#N)c1 (stereo not shown) [Example 5, 1-[(2-cyanopyridin-4-yl)methyl]-3-(2,4,4-trimethylcyclohexyl)urea]	60%	3690 nM
O=C(NCc1ccnc(OC2CC(F)(F)C2)c1)N[C@H]1C[C@H](C(F)(F)F)C1 [Example 209, 1-[[2-(3,3-difluorocyclobutyl)oxypyridin-4-yl]methyl]-3-[(1r,3r)-3-(trifluoromethyl)cyclobutyl]urea]	71%	490 nM
CC(F)(F)c1cc(CNC(=O)Nc2cccc(Cl)c2)ccn1 [Example 231, 1-(3-chlorophenyl)-3-[[2-(1,1-difluoroethyl)pyridin-4-yl]methyl]urea]	51%	800 nM
O=C(NCc1ccnc(OCC(F)(F)F)c1)NC1(C2CC(F)(F)C2)CC1 [Example 254, 1-[1-(3,3-difluorocyclobutyl)cyclopropyl]-3-[[2-(2,2,2-trifluoroethoxy)pyridin-4-yl]methyl]urea]	40%	1010 nM
O=C(NCc1ccnc(OC(F)F)c1)N[C@H]1CC[C@@H]2CCC[C@@H]21 [Example 103, 1-[(1S,3aS,6aS)-1,2,3,3a,4,5,6,6a-octahydropentalen-1-yl]-3-[[2-(difluoromethoxy)pyridin-4-yl]methyl]urea]	71%	30 nM
O=C(NCc1ccnc(OC(F)F)c1)N[C@H]1C[C@@H]2C[C@H]1[C@H](O)C2 (racemic) [Example 107, 1-[[2-(difluoromethoxy)pyridin-4-yl]methyl]-3-[rac-(1R,2S,4S,6R)-6-hydroxy-2-bicyclo[2.2.1]heptanyl]urea]	95%	1700 nM
O=C(NCc1cc(OCC(F)(F)F)ncn1)N[C@H]1C[C@H](C(F)(F)F)C1 [Example 279, 1-[[6-(2,2,2-trifluoroethoxy)pyrimidin-4-yl]methyl]-3-[(1r,3r)-3-(trifluoromethyl)cyclobutyl]urea]	75%	170 nM
N#Cc1cc(CNC(=O)N[C@H]2C[C@@H]3CC[C@H]2C3)ccn1 (racemic) [Example 34, 1-[(2-cyanopyridin-4-yl)methyl]-3-[rac-(1R,2R,4S)-2-bicyclo[2.2.1]heptanyl]urea]	49%	2770 nM
O=C(NCc1ccnc(OCF)c1)N[C@@H]1[C@H]2CCC(F)(F)[C@H]21 (racemic) [Example 176, 1-[[2-(fluoromethoxy)pyridin-4-yl]methyl]-3-[rac-(1R,5S,6R)-2,2-difluoro-6-bicyclo[3.1.0]hexanyl]urea]	62%	890 nM
O=C(Nc1ccc(F)c(F)c1)NC(CO)c1ccnc(OC(F)F)c1 (stereo not shown) [Example 240, 1-[1-[2-(difluoromethoxy)pyridin-4-yl]-2-hydroxyethyl]-3-(3,4-difluorophenyl)urea]	55%	300 nM
O=C(NCc1ccnc(OC(F)F)c1)N[C@H]1C[C@H]2CCC[C@@]2(CO)C1 (racemic) [Example 112, 1-[[2-(difluoromethoxy)pyridin-4-yl]methyl]-3-[rac-(2R,3aS,6aS)-6a-(hydroxymethyl)-2,3,3a,4,5,6-hexahydro-1H-pentalen-2-yl]urea]	49%	4910 nM
O=C(NCc1ccnc(OCC(F)(F)F)c1)NC12CCC(F)(CC1)CC2 [Example 180, 1-(4-fluoro-1-bicyclo[2.2.2]octanyl)-3-[[2-(2,2,2-trifluoroethoxy)pyridin-4-yl]methyl]urea]	72%	310 nM
O=C(NCc1ccnc(OCF)c1)Nc1ccc(F)c(F)c1 [Example 249, 1-(3,4-difluorophenyl)-3-[[2-(fluoromethoxy)pyridin-4-yl]methyl]urea]	43%	260 nM
O=C(NCc1ccnc(OCC(F)CF)c1)Nc1cccc(Cl)c1 (stereo not shown) [Example 220, 1-(3-chlorophenyl)-3-[[2-(2,3-difluoropropoxy)pyridin-4-yl]methyl]urea]	48%	460 nM
O=C(NCc1ccnc(OC(F)F)c1)NC12CCC(F)(CC1)CC2O (stereo not shown) [Example 82, 1-[[2-(difluoromethoxy)pyridin-4-yl]methyl]-3-(4-fluoro-2-hydroxy-1-bicyclo[2.2.2]octanyl)urea]	48%	1030 nM
O=C(NC(CO)c1ccnc(OC(F)F)c1)N[C@H]1C[C@H](C(F)(F)F)C1 (stereo partly shown) [Example 91, 1-[1-[2-(difluoromethoxy)pyridin-4-yl]-2-hydroxyethyl]-3-[(1r,3r)-3-(trifluoromethyl)cyclobutyl]urea]	82%	1260 nM
